Measurements from the supplement of paper PMC10307832.

Assays:
Experiment in all cases: relative viability (nuclei count vs DMSO), 5 days (fraction); higher = more cells survive
Gemcitabine + Lapatinib = compound: Nc1ccn([C@@H]2O[C@H](CO)[C@@H](O)C2(F)F)c(=O)n1 [Gemcitabine] + CS(=O)(=O)CCNCc1ccc(-c2ccc3ncnc(Nc4ccc(OCc5cccc(F)c5)c(Cl)c4)c3c2)o1 [Lapatinib] (partner 2 µM)
Outline: (§1)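 Lung cancer cell lines, seeded in 1536-well plates, were treated the following day by pin tool with a single drug or with five library-drug doses (not always all listed) in √10 steps on top of a fixed anchor-drug dose. Cells were fixed and nuclei stained in one step after 5 days, and nuclei were counted. Relative viability is the nuclei count for treated wells divided by that for vehicle wells, reported as medians of duplicate plates.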

Gemcitabine + Crizotinib = compound: Nc1ccn([C@@H]2O[C@H](CO)[C@@H](O)C2(F)F)c(=O)n1 [Gemcitabine] + C[C@@H](Oc1cc(-c2cnn(C3CCNCC3)c2)cnc1N)c1c(Cl)ccc(F)c1Cl [Crizotinib] (partner 1 µM)
Outline: as §1

Gemcitabine + Dasatinib = compound: Nc1ccn([C@@H]2O[C@H](CO)[C@@H](O)C2(F)F)c(=O)n1 [Gemcitabine] + Cc1nc(Nc2ncc(C(=O)Nc3c(C)cccc3Cl)s2)cc(N2CCN(CCO)CC2)n1 [Dasatinib] (partner 0.075 µM)
Outline: as §1

Gemcitabine + Pemetrexed = compound: Nc1ccn([C@@H]2O[C@H](CO)[C@@H](O)C2(F)F)c(=O)n1 [Gemcitabine] + Nc1nc2[nH]cc(CCc3ccc(C(=O)N[C@@H](CCC(=O)O)C(=O)O)cc3)c2c(=O)[nH]1 [Pemetrexed] (partner 0.2 µM)
Outline: as §1

Row | Cell Line | relative viability (Gemcitabine + Lapatinib; first compound 0.001 µM) | relative viability (Gemcitabine + Lapatinib; first compound 0.003162 µM) | relative viability (Gemcitabine + Lapatinib; first compound 0.01 µM) | relative viability (Gemcitabine + Lapatinib; first compound 0.03162 µM) | relative viability (Gemcitabine + Lapatinib; first compound 0.1 µM) | relative viability (Gemcitabine + Crizotinib; first compound 0.001 µM) | relative viability (Gemcitabine + Crizotinib; first compound 0.003162 µM) | relative viability (Gemcitabine + Crizotinib; first compound 0.01 µM) | relative viability (Gemcitabine + Crizotinib; first compound 0.03162 µM) | relative viability (Gemcitabine + Crizotinib; first compound 0.1 µM) | relative viability (Gemcitabine + Dasatinib; first compound 0.001 µM) | relative viability (Gemcitabine + Dasatinib; first compound 0.003162 µM) | relative viability (Gemcitabine + Dasatinib; first compound 0.01 µM) | relative viability (Gemcitabine + Dasatinib; first compound 0.03162 µM) | relative viability (Gemcitabine + Dasatinib; first compound 0.1 µM) | relative viability (Gemcitabine + Pemetrexed; first compound 0.001 µM) | relative viability (Gemcitabine + Pemetrexed; first compound 0.003162 µM) | relative viability (Gemcitabine + Pemetrexed; first compound 0.01 µM) | relative viability (Gemcitabine + Pemetrexed; first compound 0.03162 µM) | relative viability (Gemcitabine + Pemetrexed; first compound 0.1 µM)
1 | NCI-H661 | 0.618 | 0.47 | 0.287 | 0.216 | 0.171 | 1.09 | 0.983 | 0.856 | 0.333 | 0.285 | 1.07 | 0.814 | 0.428 | 0.176 | 0.18 | 0.895 | 0.998 | 0.891 | 0.299 | 0.216
2 | HCC-366 | 0.954 | 1.19 | 0.546 | 0.0287 | 0.0142 | 0.629 | 0.588 | 0.0778 | 0.0184 | 0.0078 | 0.633 | 0.637 | 0.155 | 0.0301 | 0.0176 | 0.155 | 0.212 | 0.189 | 0.0374 | 0.0257
3 | HOP-62 | 0.961 | 0.863 | 0.301 | 0.0724 | 0.0756 | 0.906 | 0.677 | 0.0595 | 0.051 | 0.0502 | 0.667 | 0.571 | 0.163 | 0.0786 | 0.0707 | 0.323 | 0.299 | 0.15 | 0.0689 | 0.0761
4 | NCI-H1944 | 0.848 | 0.847 | 0.804 | 0.45 | 0.24 | 1.28 | 1.02 | 0.953 | 0.304 | 0.141 | 0.208 | 0.209 | 0.182 | 0.153 | 0.123 | 0.586 | 0.601 | 0.554 | 0.254 | 0.112
5 | SW 1573 | 1.07 | 0.994 | 0.681 | 0.148 | 0.082 | 0.997 | 0.728 | 0.202 | 0.12 | 0.0565 | 0.481 | 0.258 | 0.0669 | 0.0389 | 0.0494 | 0.876 | 0.732 | 0.0969 | 0.0574 | 0.0459
6 | LU99A | 1.15 | 1.16 | 0.932 | 0.974 | 1 | 0.577 | 0.648 | 0.567 | 0.567 | 0.562 | 0.555 | 0.56 | 0.558 | 0.516 | 0.507 | 0.177 | 0.181 | 0.186 | 0.198 | 0.214
7 | NCI-H647 | 0.742 | 0.28 | 0.0986 | 0.0734 | 0.0451 | 1.09 | 0.195 | 0.0721 | 0.0642 | 0.0615 | 0.1 | 0.0588 | 0.0298 | 0.0257 | 0.0223 | 0.211 | 0.178 | 0.072 | 0.0569 | 0.0589
8 | A-427 | 1.09 | 0.686 | 0.808 | 0.199 | 0.13 | 0.984 | 0.764 | 0.503 | 0.124 | 0.106 | 0.67 | 0.629 | 0.183 | 0.126 | 0.109 | 0.986 | 0.93 | 0.851 | 0.351 | 0.249
9 | COR-L 105 | 0.362 | 0.355 | 0.314 | 0.302 | 0.269 | 1.09 | 0.825 | 0.577 | 0.286 | 0.197 | 0.295 | 0.318 | 0.274 | 0.198 | 0.154 | 1.32 | 1.01 | 0.895 | 0.37 | 0.282
10 | NCI-H2126 | 0.704 | 0.764 | 0.738 | 0.615 | 0.394 | 1.04 | 0.999 | 0.968 | 0.644 | 0.41 | 0.647 | 0.6 | 0.548 | 0.389 | 0.19 | 0.628 | 0.742 | 0.628 | 0.577 | 0.3
11 | NCI-H460 | 1.05 | 1.11 | 0.278 | 0.0125 | 0.009 | 1.12 | 0.894 | 0.528 | 0.0182 | 0.0089 | 0.495 | 0.524 | 0.46 | 0.0224 | 0.0058 | 0.06 | 0.0638 | 0.0721 | 0.029 | 0.019
12 | SK-LU-1 | 0.89 | 0.509 | 0.162 | 0.134 | 0.195 | 1.02 | 0.364 | 0.258 | 0.208 | 0.252 | 0.165 | 0.123 | 0.106 | 0.112 | 0.131 | 1.01 | 0.434 | 0.252 | 0.2 | 0.237
13 | NCI-H322M | 0.61 | 0.362 | 0.239 | 0.227 | 0.217 | 0.85 | 0.357 | 0.269 | 0.219 | 0.212 | 0.295 | 0.241 | 0.28 | 0.274 | 0.252 | 0.658 | 0.367 | 0.273 | 0.329 | 0.363
14 | EKVX | 0.238 | 0.354 | 0.111 | 0.116 | 0.12 | 1 | 0.872 | 0.387 | 0.169 | 0.159 | 0.471 | 0.658 | 0.546 | 0.232 | 0.172 | 0.351 | 0.333 | 0.133 | 0.151 | 0.14
15 | NCI-H1734 | 0.985 | 0.97 | 0.421 | 0.165 | 0.0939 | 0.8 | 0.48 | 0.246 | 0.106 | 0.104 | 0.385 | 0.354 | 0.111 | 0.0942 | 0.091 | 0.408 | 0.377 | 0.197 | 0.139 | 0.136
16 | NCI-H520 | 0.901 | 1.11 | 0.474 | 0.186 | 0.121 | 0.915 | 0.769 | 0.465 | 0.156 | 0.108 | 0.212 | 0.258 | 0.161 | 0.151 | 0.154 | 0.663 | 0.719 | 0.275 | 0.177 | 0.161
17 | EPLC-272H | 1.08 | 0.257 | 0.664 | 0.19 | 0.0848 | 0.766 | 0.847 | 0.196 | 0.175 | 0.0681 | 0.421 | 0.433 | 0.153 | 0.112 | 0.0503 | 0.316 | 0.33 | 0.132 | 0.178 | 0.108
18 | UMC-11 | 1.04 | 1.06 | 0.98 | 0.879 | 0.208 | 0.746 | 0.574 | 0.598 | 0.549 | 0.233 | 0.464 | 0.516 | 0.415 | 0.368 | 0.223 | 0.814 | 0.769 | 0.747 | 0.676 | 0.403
19 | NCI-H1792 | 0.948 | 0.806 | 0.239 | 0.107 | 0.0773 | 1.05 | 0.897 | 0.222 | 0.0949 | 0.0981 | 0.785 | 0.485 | 0.329 | 0.192 | 0.142 | 0.773 | 0.174 | 0.0569 | 0.0984 | 0.0556
20 | NCI-H1993 | 0.77 | 0.769 | 0.853 | 0.546 | 0.495 | 0.89 | 0.891 | 0.668 | 0.549 | 0.461 | 0.617 | 0.529 | 0.446 | 0.509 | 0.42 | 0.545 | 0.513 | 0.516 | 1.17 | 0.409
21 | NCI-H596 | 1.01 | 1.07 | 0.739 | 0.424 | 0.373 | 1.04 | 1.02 | 0.531 | 0.391 | 0.345 | 0.528 | 0.521 | 0.289 | 0.242 | 0.215 | 0.531 | 0.491 | 0.476 | 0.403 | 0.319
22 | NCI-H1563 | 1.01 | 1.19 | 0.901 | 0.704 | 0.612 | 0.861 | 0.993 | 0.917 | 0.635 | 0.411 | 0.433 | 0.46 | 0.457 | 0.378 | 0.373 | 0.748 | 0.852 | 0.833 | 0.407 | 0.414
23 | HCC-827 | 0.181 | 0.177 | 0.18 | 0.138 | 0.126 | 0.886 | 0.674 | 0.572 | 0.387 | 0.214 | 0.295 | 0.226 | 0.319 | 0.253 | 0.186 | 0.301 | 0.224 | 0.248 | 0.176 | 0.145
24 | NCI-H2228 | 1.06 | 0.827 | 0.207 | 0.109 | 0.148 | 0.615 | 0.326 | 0.233 | 0.141 | 0.166 | 0.529 | 0.3 | 0.118 | 0.111 | 0.087 | 0.348 | 0.332 | 0.166 | 0.092 | 0.112
25 | NCI-H2170 | 0.282 | 0.271 | 0.244 | 0.197 | 0.185 | 1.39 | 1.23 | 0.615 | 0.161 | 0.155 | 0.609 | 0.673 | 0.415 | 0.114 | 0.104 | 0.289 | 0.259 | 0.314 | 0.127 | 0.119
26 | EMC-BAC-2 | 0.923 | 0.979 | 0.86 | 0.198 | 0.159 | 0.778 | 0.768 | 0.594 | 0.14 | 0.149 | 0.348 | 0.352 | 0.181 | 0.124 | 0.137 | 0.439 | 0.454 | 0.389 | 0.27 | 0.292
